According to patent publication US12503438B2, “Compounds for the treatment of kinase-dependent disorders” (Exelixis, Inc., priority 2019, dated 2025):

How the values were obtained:
AXL = molecular target: T1, AXL (Homo sapiens, UniProt P30530); assay: AXL autophosphorylation ELISA in A-172 cells; type: cell-based; conditions: cellular activity, Gas6-stimulated, phospho-AXL ELISA
T1 construct: endogenous in cells; host or cells: A-172 glioblastoma cells (ATCC #CRL-1620)
T1 sequence (P30530 26-894): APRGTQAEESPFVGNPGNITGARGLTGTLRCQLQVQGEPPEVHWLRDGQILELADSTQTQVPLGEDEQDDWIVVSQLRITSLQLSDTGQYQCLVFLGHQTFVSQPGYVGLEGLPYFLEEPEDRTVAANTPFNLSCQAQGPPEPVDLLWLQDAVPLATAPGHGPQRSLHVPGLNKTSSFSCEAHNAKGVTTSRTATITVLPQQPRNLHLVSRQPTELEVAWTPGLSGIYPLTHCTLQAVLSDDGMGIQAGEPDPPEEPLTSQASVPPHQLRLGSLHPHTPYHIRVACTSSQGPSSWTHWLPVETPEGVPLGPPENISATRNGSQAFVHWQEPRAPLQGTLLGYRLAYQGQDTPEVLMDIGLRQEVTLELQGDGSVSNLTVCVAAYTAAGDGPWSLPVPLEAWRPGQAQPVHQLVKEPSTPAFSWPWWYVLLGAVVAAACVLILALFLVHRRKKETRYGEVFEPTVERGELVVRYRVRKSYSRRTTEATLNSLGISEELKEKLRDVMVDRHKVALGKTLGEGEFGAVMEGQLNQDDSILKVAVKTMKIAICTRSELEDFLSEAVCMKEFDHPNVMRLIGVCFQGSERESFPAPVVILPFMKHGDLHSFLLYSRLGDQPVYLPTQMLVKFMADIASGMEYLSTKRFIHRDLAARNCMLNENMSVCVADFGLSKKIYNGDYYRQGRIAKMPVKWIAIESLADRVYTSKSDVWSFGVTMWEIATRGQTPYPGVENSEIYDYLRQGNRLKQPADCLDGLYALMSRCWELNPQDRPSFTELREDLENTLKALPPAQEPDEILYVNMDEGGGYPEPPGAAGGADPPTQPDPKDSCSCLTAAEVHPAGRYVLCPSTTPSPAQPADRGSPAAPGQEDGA
How it was run: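 Serum-starved (24 h) A-172 glioblastoma cells got an 8-point compound series (0.3% DMSO) for 1 h, then 1 μg/mL human Gas6 for 15 min. Lysate phospho-AXL quantified by ELISA against phospho-AXL standard, normalized to DMSO and reference-inhibitor controls; IC50 by 4-parameter logistic fit.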

KDR = KDR (Homo sapiens, UniProt P35968); assay: KDR autophosphorylation ELISA in HUVEC cells; type: cell-based; parameters: endogenous in cells; host or cells: HUVEC (Lonza #C2519A); conditions: cellular activity, VEGF165-stimulated, phospho-KDR ELISA
How it was run: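 Phospho-KDR levels in lysates were measured by ELISA and referenced to stimulated-vehicle (100%) and unstimulated (0%) wells, IC50 from 4-parameter logistic fit. HUVEC, starved 24 h in serum-free medium, received an 8-point compound series (0.3% DMSO) for 1 h before a 5 min 100 ng/mL VEGF165 challenge.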

KDR, sequence (P35968 20-1356): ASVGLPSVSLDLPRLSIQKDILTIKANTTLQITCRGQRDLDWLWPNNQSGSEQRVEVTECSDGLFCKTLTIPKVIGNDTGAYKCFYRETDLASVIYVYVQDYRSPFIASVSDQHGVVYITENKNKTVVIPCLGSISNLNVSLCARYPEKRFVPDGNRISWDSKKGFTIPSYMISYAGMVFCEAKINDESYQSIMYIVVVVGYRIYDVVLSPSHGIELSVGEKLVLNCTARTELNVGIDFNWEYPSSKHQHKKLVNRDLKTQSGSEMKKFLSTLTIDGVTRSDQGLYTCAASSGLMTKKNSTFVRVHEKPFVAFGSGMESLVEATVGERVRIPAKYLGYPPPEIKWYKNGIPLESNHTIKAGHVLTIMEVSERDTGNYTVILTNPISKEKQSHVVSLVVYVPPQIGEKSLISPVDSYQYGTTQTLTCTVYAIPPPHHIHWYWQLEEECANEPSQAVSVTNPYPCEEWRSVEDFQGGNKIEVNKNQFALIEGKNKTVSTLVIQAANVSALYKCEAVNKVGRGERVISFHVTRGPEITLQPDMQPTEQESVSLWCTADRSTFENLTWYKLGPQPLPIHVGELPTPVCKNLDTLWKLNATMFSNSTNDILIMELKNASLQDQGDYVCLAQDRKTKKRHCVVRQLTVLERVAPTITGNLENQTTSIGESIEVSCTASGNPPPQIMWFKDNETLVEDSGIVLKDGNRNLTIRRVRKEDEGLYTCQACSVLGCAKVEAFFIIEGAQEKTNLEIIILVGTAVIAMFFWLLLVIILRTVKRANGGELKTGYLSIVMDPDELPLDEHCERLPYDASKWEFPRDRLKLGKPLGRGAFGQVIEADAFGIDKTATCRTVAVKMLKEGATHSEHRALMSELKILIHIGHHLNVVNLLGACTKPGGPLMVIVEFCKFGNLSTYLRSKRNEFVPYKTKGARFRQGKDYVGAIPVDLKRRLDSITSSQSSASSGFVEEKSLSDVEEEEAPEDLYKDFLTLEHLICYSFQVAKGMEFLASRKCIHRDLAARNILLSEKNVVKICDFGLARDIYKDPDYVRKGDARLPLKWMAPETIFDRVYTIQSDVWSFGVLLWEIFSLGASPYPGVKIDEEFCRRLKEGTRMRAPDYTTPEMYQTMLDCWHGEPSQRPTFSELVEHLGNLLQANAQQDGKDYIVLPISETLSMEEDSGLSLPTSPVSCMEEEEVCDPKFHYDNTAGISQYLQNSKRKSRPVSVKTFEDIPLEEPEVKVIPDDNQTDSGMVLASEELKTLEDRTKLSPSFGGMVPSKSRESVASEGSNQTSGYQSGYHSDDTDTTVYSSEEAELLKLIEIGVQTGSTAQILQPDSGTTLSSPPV

Row | SMILES | IC50 (AXL) | IC50 (KDR)
1 | Cn1ccc(-c2ccc3c(Oc4ccc(NC(=O)C5(C(=O)Nc6ccc(F)cc6)CC5)cc4)ccnc3c2)cc1=O [Compound 117, 1-N′-(4-Fluorophenyl)-1-N-[4-[7-(1-methyl-2-oxopyridin-4-yl)quinolin-4-yl]oxyphenyl]cyclopropane-1,1-dicarboxamide] | ≤ 10 nM | ≤ 10 nM
2 | O=C(Nc1ccc(F)cc1)C1(C(=O)Nc2cc(F)c(Oc3ccnc4cc(-c5cnn(C(F)F)c5)ccc34)cc2F)CC1 [Compound 118, 1-N′-[4-[7-[1-(Difluoromethyl)pyrazol-4-yl]quinolin-4-yl]oxy-2,5-difluorophenyl]-1-N-(4-fluorophenyl)cyclopropane-1,1-dicarboxamide] | ≤ 10 nM | 10 to 100 nM
3 | Cn1cc(-c2ccc3c(Oc4ccc(NC(=O)C5(C(=O)Nc6ccc(F)cc6)CC5)cc4)ccnc3c2)ccc1=O [Compound 119, 1-N′-(4-Fluorophenyl)-1-N-[4-[7-(1-methyl-6-oxopyridin-3-yl)quinolin-4-yl]oxyphenyl]cyclopropane-1,1-dicarboxamide] | ≤ 10 nM | ≤ 10 nM
4 | Cc1cc2c(Oc3cc(F)c(NC(=O)C4(C(=O)Nc5ccc(F)cc5)CC4)cc3F)ccnc2cc1-c1ncc[nH]1 [Compound 121, 1-N′-[2,5-Difluoro-4-[7-(1H-imidazol-2-yl)-6-methylquinolin-4-yl]oxyphenyl]-1-N-(4-fluorophenyl)cyclopropane-1,1-dicarboxamide] | ≤ 10 nM | 10 to 100 nM
5 | Cc1cc2c(Oc3ccc(NC(=O)C4(C(=O)Nc5ccc(F)cc5)CC4)cc3F)ccnc2cc1-c1ncc[nH]1 [Compound 122, 1-N′-[3-Fluoro-4-[7-(1H-imidazol-2-yl)-6-methylquinolin-4-yl]oxyphenyl]-1-N-(4-fluorophenyl)cyclopropane-1,1-dicarboxamide] | 10 to 100 nM | 10 to 100 nM
6 | O=C(Nc1ccc(F)cc1)C1(C(=O)Nc2ccc(Oc3ccnc4cc(-c5cnn(C(F)F)c5)ccc34)c(F)c2)CC1 [Compound 123, 1-N′-[4-[7-[1-(Difluoromethyl)pyrazol-4-yl]quinolin-4-yl]oxy-3-fluorophenyl]-1-N-(4-fluorophenyl)cyclopropane-1,1-dicarboxamide] | ≤ 10 nM | ≤ 10 nM
7 | O=C(Nc1ccc(F)cc1)C1(C(=O)Nc2ccc(Oc3ccnc4cc(-c5cc6n(n5)CCC6)ccc34)cc2)CC1 [Compound 124, 1-N-[4-[7-(5,6-Dihydro-4H-pyrrolo[1,2-b]pyrazol-2-yl)quinolin-4-yl]oxyphenyl]-1-N′-(4-fluorophenyl)cyclopropane-1,1-dicarboxamide] | 10 to 100 nM | 10 to 100 nM
